Measured values: patent US20250122219A1 (priority 2023, published 2025)
Converted amounts (≈) assume the structure as drawn. Where two headings read alike, the source gives them in different places.

What was measured:
HIV-1 (IIIB) = test: Antiviral assay in MT-4 cells; assay type: cell-based
Method in brief: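 Read-out: CellTiter-Glo luminescence after 5 days at 37 °C, reflecting survival of MT-4 cells infected with HIV-1 IIIB (1:250 fresh stock dilution) versus mock-infected. Compounds serially diluted into RPMI with 10% FBS; AZT at 5 μM served as positive control.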

[1] = Cytotoxicity assay in MT-4 cells; assay type: cell-based; conditions: human; uninfected MT-4 cells, 5 days incubation, Cell Titer Glo; read-out: MT4 CC50
Method in brief: (§1)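 Viability read by Cell Titer Glo luminescence after 5 days at 37 °C. MT-4 cells, not infected, in complete RPMI (10% FBS), received compound dilution series. Base cytotoxicity set with […] puromycin.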

physchem = assay type: physicochemical; conditions: ambient temperature, 5 mg/mL dose concentration; for solubility thermodynamic at 24 h / solubility thermodynamic: 23 °C, thermodynamic from solid; for solubility thermodynamic at 24 h: FaSSIF; for solubility thermodynamic: aqueous buffer; for solubility thermodynamic / Thermodynamic PBS Solubility (mg/mL): PBS
Protocol: Approximately 7 mg of each test compound as a dry powder was placed in a vial. Aliquots were weighed out for each assay media at 2 hour and 24 hour time points, to be analyzed. The appropriate buffer (FaSSIF or PBS) was added to each vial such that the final dose concentration of 5 mg/mL was achieved. […] The plate was sealed with a pierceable heat seal and analyzed by HPLC-UV.
A system QC (0.01 mg/mL Caffeine in DMSO) was injected every 12-15 injections. […] Results are reported using data obtained at 280 nm. The resulting peak areas were plotted against the known concentrations from the calibration and the filtrates are quantified with respect to the linear regression using Agilent OpenLab Intelligent Reporting Software. The results are reported electronically in mg/mL.

MT-4 cells = test: Cytotoxicity assay in MT-4 cells; assay type: cell-based; conditions: uninfected MT-4 cells, 5 days incubation, Cell Titer Glo; read-out: MT4 CC50
Method in brief: as §1

[2] = Human immunodeficiency virus 1, MT4, 120 h, HIV-1 IIIB in MT-4 cells, 5 days incubation, Cell Titer Glo, read-out: MT4 EC50

SMILES | EC50 (HIV-1 (IIIB); [2]) [nM] | CC50 at 5 days [1] [nM] | solubility thermodynamic at 24 h (physchem) [µg/mL] | solubility thermodynamic (physchem) [µg/mL] | EC50 (HIV-1 (IIIB); Human immunodeficiency virus 1, IIIB, MT4, 120 h, read-out: MT4 EC50 (nM)) [nM] | EC50 (HIV-1 (IIIB); HIV-1 IIIB in MT-4 cells, 5 days incubation, Cell Titer Glo, read-out: MT4 EC50) [nM] | CC50 (MT-4 cells) [nM] | Thermodynamic PBS Solubility (mg/mL) (physchem)
CC1=NO[C@@]2(CC[C@H](C)N3C[C@H]2n2cc(C(=O)NCc4ccc(F)cc4F)c(=O)c(O[C@H](C)OC(=O)OC(C)C)c2C3=O)C1 (single isomer, unassigned) [Example 20] | 11.5 | 35000 | 70 (≈ 114 µM) | – | – | – | – | –
CC1=NO[C@@]2(CC[C@H](C)N3C[C@H]2n2cc(C(=O)NCc4ccc(F)cc4F)c(=O)c(O[C@@H](C)OC(=O)OC(C)C)c2C3=O)C1 (single isomer, unassigned) [Example 21] | 26.4 | ≥ 50000 | 150 (≈ 243 µM) | – | – | – | – | –
COCCOCCOCCOC(=O)Oc1c2n(cc(C(=O)NCc3ccc(F)cc3F)c1=O)[C@@H]1CN(C2=O)[C@@H](C)CC[C@]12CC(OC)=NO2 [Example 3, (3′S,5S,7′R)-10′-((2,4-difluorobenzyl)carbamoyl)-3-methoxy-3′-methyl-1′,11′-dioxo-1′,4′,5′,11′-tetrahydro-3′H,4H,7′H-spiro[isoxazole-5,6′-[2,7]methanopyrido[1,2-a][1,4]diazonin]-12′-yl (2-(2-(2-methoxyethoxy)ethoxy)ethyl) carbonate] | 1.06 | 16300 | 470 (≈ 679 µM) | – | – | – | – | –
COCCOC(=O)OCOc1c2n(cc(C(=O)NCc3ccc(F)cc3F)c1=O)[C@@H]1CN(C2=O)[C@@H](C)CC[C@]12CC(OC)=NO2 [Example 5, (((3′S,5S,7′R)-10′-((2,4-difluorobenzyl)carbamoyl)-3-methoxy-3′-methyl-1′,11′-dioxo-1′,4′,5′,11′-tetrahydro-3′H,4H,7′H-spiro[isoxazole-5,6′-[2,7]methanopyrido[1,2-a][1,4]diazonin]-12′-yl)oxy)methyl (2-methoxyethyl) carbonate] | 4.08 | 39800 | 168 (≈ 265 µM) | 39 (≈ 61.5 µM) | – | – | – | –
COCCOCCOC(=O)Oc1c2n(cc(C(=O)NCc3ccc(F)cc3F)c1=O)[C@@H]1CN(C2=O)[C@@H](C)CC[C@]12CC(C)=NO2 [Example 8, (3′S,5S,7′R)-10′-((2,4-difluorobenzyl)carbamoyl)-3,3′-dimethyl-1′,11′-dioxo-1′,4′,5′,11′-tetrahydro-3′H,4H,7′H-spiro[isoxazole-5,6′-[2,7]methanopyrido[1,2-a][1,4]diazonin]-12′-yl (2-(2-methoxyethoxy)ethyl) carbonate] | – | 11700 | 486 (≈ 768 µM) | – | 0.632 | – | – | –
COCCOC(=O)OCOc1c2n(cc(C(=O)NCc3ccc(F)cc3F)c1=O)[C@@H]1CN(C2=O)[C@@H](C)CC[C@]12CC(C)=NO2 [Example 10, (((3′S,5S,7′R)-10′-((2,4-difluorobenzyl)carbamoyl)-3,3′-dimethyl-1′,11′-dioxo-1′,4′,5′,11′-tetrahydro-3′H,4H,7′H-spiro[isoxazole-5,6′-[2,7]methanopyrido[1,2-a][1,4]diazonin]-12′-yl)oxy)methyl (2-methoxyethyl) carbonate] | 6.4 | 31700 | 35 (≈ 56.6 µM) | 15 (≈ 24.2 µM) | – | – | – | –
COC(=O)OCOc1c2n(cc(C(=O)NCc3ccc(F)cc3F)c1=O)[C@@H]1CN(C2=O)[C@@H](C)CC[C@]12CC(OC)=NO2 [Example 11, (((3′S,5S,7′R)-10′-((2,4-difluorobenzyl)carbamoyl)-3-methoxy-3′-methyl-1′,11′-dioxo-1′,4′,5′,11′-tetrahydro-3′H,4H,7′H-spiro[isoxazole-5,6′-[2,7]methanopyrido[1,2-a][1,4]diazonin]-12-yl)oxy)methyl methyl carbonate] | – | – | – | – | – | 8.34 | 36800 | –
COC(=O)OCOc1c2n(cc(C(=O)NCc3ccc(F)cc3F)c1=O)[C@@H]1CN(C2=O)[C@@H](C)CC[C@]12CC(C)=NO2 [Example 12, (((3′S,5S,7′R)-10′-((2,4-difluorobenzyl)carbamoyl)-3,3′-dimethyl-1′,11′-dioxo-1′,4′,5′,11′-tetrahydro-3′H,4H,7′H-spiro[isoxazole-5,6′-[2,7]methanopyrido[1,2-a][1,4]diazonin]-12′-yl)oxy)methyl methyl carbonate] | 3.81 | 25900 | 30 (≈ 52.2 µM) | – | – | – | – | –
CCCCCCCCCCCCCCCCCC(=O)Oc1c2n(cc(C(=O)NCc3ccc(F)cc3F)c1=O)[C@@H]1CN(C2=O)[C@@H](C)CC[C@]12CC(C)=NO2 [Example 15, (3′S,5S,7′R)-10′-((2,4-difluorobenzyl)carbamoyl)-3,3′-dimethyl-1′,11′-dioxo-1′,4′,5′,11′-tetrahydro-3′H,4H,7′H-spiro[isoxazole-5,6′-[2,7]methanopyrido[1,2-a][1,4]diazonin]-12′-yl stearate] | 6.36 | ≥ 50000 | – | – | – | – | – | <LOD
CC(=O)Oc1c2n(cc(C(=O)NCc3ccc(F)cc3F)c1=O)[C@@H]1CN(C2=O)[C@@H](C)CC[C@]12CC(C)=NO2 [Example 16, (3′S,5S,7′R)-10′-((2,4-difluorobenzyl)carbamoyl)-3,3′-dimethyl-1′,11′-dioxo-1′,4′,5′,11′-tetrahydro-3′H,4H,7′H-spiro[isoxazole-5,6′-[2,7]methanopyrido[1,2-a][1,4]diazonin]-12′-yl acetate] | 1.3 | 11200 | 270 | 372 | – | – | – | –
CCCCC(=O)Oc1c2n(cc(C(=O)NCc3ccc(F)cc3F)c1=O)[C@@H]1CN(C2=O)[C@@H](C)CC[C@]12CC(C)=NO2 [Example 17, (3′S,5S,7′R)-10′-((2,4-difluorobenzyl)carbamoyl)-3,3′-dimethyl-1′,11′-dioxo-1′,4′,5′,11′-tetrahydro-3′H,4H,7′H-spiro[isoxazole-5,6′-[2,7]methanopyrido[1,2-a][1,4]diazonin]-12′-yl pentanoate] | 1.28 | 10200 | – | – | – | – | – | <LOD
CC1=NO[C@@]2(CC[C@H](C)N3C[C@H]2n2cc(C(=O)NCc4ccc(F)cc4F)c(=O)c(OC(=O)C(C)(C)C)c2C3=O)C1 [Example 19, (3′S,5S,7′R)-10′-((2,4-difluorobenzyl)carbamoyl)-3,3′-dimethyl-1′,11′-dioxo-1′,4′,5′,11′-tetrahydro-3′H,4H,7′H-spiro[isoxazole-5,6′-[2,7]methanopyrido[1,2-a][1,4]diazonin]-12′-yl pivalate] | 1.53 | 12300 | 83 (≈ 145 µM) | – | – | – | – | –
CC1=NO[C@@]2(CC[C@H](C)N3C[C@H]2n2cc(C(=O)NCc4ccc(F)cc4F)c(=O)c(OC(=O)OC(C)C)c2C3=O)C1 [Example 22, (3′S,5S,7′R)-10′-((2,4-difluorobenzyl)carbamoyl)-3,3′-dimethyl-1′,11′-dioxo-1′,4′,5′,11′-tetrahydro-3′H,4H,7′H-spiro[isoxazole-5,6′-[2,7]methanopyrido[1,2-a][1,4]diazonin]-12′-yl isopropyl carbonate] | 0.992 | 12500 | 70 (≈ 122 µM) | 34 (≈ 59.4 µM) | – | – | – | –
CC1=NO[C@@]2(CC[C@H](C)N3C[C@H]2n2cc(C(=O)NCc4ccc(F)cc4F)c(=O)c(OCOC(=O)OC(C)C)c2C3=O)C1 [Example 24, (((3′S,5S,7′R)-10′-((2,4-difluorobenzyl)carbamoyl)-3,3′-dimethyl-1′,11′-dioxo-1′,4′,5′,11′-tetrahydro-3′H,4H,7′H-spiro[isoxazole-5,6′-[2,7]methanopyrido[1,2-a][1,4]diazonin]-12′-yl)oxy)methyl isopropyl carbonate] | 5.17 | 31700 | 8 (≈ 13.3 µM) | – | – | – | – | –
